# Measurements reported in patent publication US20240083853A1, “HSD17B13 INHIBITORS AND USES THEREOF” (FL2022-001, Inc., priority 2020, published 2024).
# pIC50: −log10 of the molar value.
# Target: T1, Recombinant human HSD17B13 enzyme (Homo sapiens, UniProt Q7Z5P4)
# T1 sequence (Q7Z5P4 20-300): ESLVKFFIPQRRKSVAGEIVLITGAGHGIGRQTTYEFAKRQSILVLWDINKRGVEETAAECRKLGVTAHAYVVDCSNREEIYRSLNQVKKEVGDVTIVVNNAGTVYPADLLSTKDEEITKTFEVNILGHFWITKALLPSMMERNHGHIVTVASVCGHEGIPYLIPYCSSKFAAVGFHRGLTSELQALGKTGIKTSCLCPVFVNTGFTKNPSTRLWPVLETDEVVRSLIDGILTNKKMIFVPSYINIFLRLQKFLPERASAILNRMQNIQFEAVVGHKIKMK
# Experiment: HSD17b13 NAD(P)H-Glo biochemical assay
# Conditions: 50 uM estradiol, 1 mM NAD+, NAD(P)H-Glo luminescence; read-out: HSD17β13 IC50
# Procedure: Example B-1: HSD17b13 NAD(P)H-Glo Biochemical Assay
# Recombinant human HSD17B13 enzyme. Substrate: estradiol (Sigma β-Estradiol E8875), 100 mM in DMSO. Cofactor: NAD+ Grade I free acid (Sigma 10127965001), 20 mM in H2O. Assay buffer final concentration: 20 mM Tris pH7.4 with 0.002% Tween-20 and 0.02% BSA. Assay performed in 384 well solid bottom plate (Corning 3570). Enzymatic activity detected by NAD(P)H-Glo™ Detection System (Promega G9062).
# Inhibitor compounds were serially diluted in DMSO and then further diluted in assay buffer to a 10× concentration consisting of 1% DMSO.
# HSD17b13 enzyme was diluted in 1× assay buffer to the desired enzyme concentration based on the specific activity of the enzyme lot. 20 uL of diluted enzyme was added to each well along with 2.5 uL of 10× inhibitor solution. Assay plate was incubated at RT for 20 minutes, and then 2.5 uL of a 10× substrate/cofactor mix was added to each well for a final concentration of 50 uM estradiol and 1 mM NAD+. Assay plate was incubated at 37° C. for 3 hours. NAD(P)H-Glo™ Detection System reagents were prepared according to manufacturer's specifications, and 25 uL was added to each well. After incubating for 1 hour at RT, luminescence was measured.
row,pIC50,Structure (SMILES)
1,6.00 to 7.00,"Oc1c(F)cc2cnn(-c3ccc(N4CCC5(CCO5)CC4)cc3)c2c1F [Compound 26.1, 1-(4-(1-Oxa-7-azaspiro[3.5]nonan-7-yl)phenyl)-5,7-difluoro-1H-indazol-6-ol]"
2,> 7.00,"CS(=O)(=O)N1CCCC(c2ccc(-n3ncc4cc(F)c(O)c(F)c43)cc2)C1 (centres unmarked) [Compound 30.1, 5,7-Difluoro-1-(4-(1-(methylsulfonyl)piperidin-3-yl)phenyl)-1H-indazol-6-ol]"
3,> 7.00,"Oc1c(F)cc2cnn(-c3ccc(N4CCCCC4)cc3)c2c1F [Compound 23.2, 5,7-Difluoro-1-(4-(piperidin-1-yl)phenyl)-1H-indazol-6-ol]"
4,> 7.00,"Cc1c(O)c(F)cc2cnn(-c3ccc(N4CCC(C)(C)CC4)cc3)c12 [Compound 25.6, 1-(4-(4,4-Dimethylpiperidin-1-yl)phenyl)-5-fluoro-7-methyl-1H-indazol-6-ol]"
5,6.00 to 7.00,"[O-][S+]1CC2(CN(c3ccc(-n4ncc5cc(F)c(O)c(F)c54)cc3)C2)C1 [Compound 32.2, 6-(4-(5,7-Difluoro-6-hydroxy-1H-indazol-1-yl)phenyl)-2-thia-6-azaspiro[3.3]heptane 2-oxide]"
6,6.00 to 7.00,"CC(C)n1c(=O)n(-c2ccc(N3CCC(C)(C)CC3)cc2)c2c(F)c(O)c(F)cc21 [Compound 21.13, 3-(4-(4,4-Dimethylpiperidin-1-yl)phenyl)-4,6-difluoro-5-hydroxy-1-isopropyl-1H-benzo[d]imidazol-2(3H)-one]"
7,6.00 to 7.00,"CS(=O)(=O)C1CN(c2ccc(-n3ncc4cc(F)c(O)c(F)c43)cc2)C1 [Compound 22.1, 5,7-Difluoro-1-(4-(3-(methylsulfonyl)azetidin-1-yl)phenyl)-1H-indazol-6-ol]"
8,6.00 to 7.00,"Oc1c(F)cc2nnn(-c3ccc(N4CCOC[C@H]4c4ccccc4)cc3)c2c1F [Compound 26.28, (R)-5,7-Difluoro-1-(4-(3-phenylmorpholino)phenyl)-1H-benzo[d][1,2,3]triazol-6-ol]"
9,6.00 to 7.00,"CS(=O)(=O)N1CCN(c2ccc(-n3ncc4ccc(O)c(F)c43)cc2)CC1 [Compound 21.11, 7-Fluoro-1-(4-(4-(methylsulfonyl)piperazin-1-yl)phenyl)-1H-indazol-6-ol]"
10,> 7.00,"Oc1c(F)cc2cnn(-c3ccc(N4CCSCC4)cc3)c2c1F [Compound 23.4, 5,7-Difluoro-1-(4-thiomorpholinophenyl)-1H-indazol-6-ol]"
11,6.00 to 7.00,"CS(=O)(=O)N1C2CC1CN(c1ccc(-n3ncc4cc(F)c(O)c(F)c43)cc1)C2 [Compound 23.15, 5,7-Difluoro-1-(4-(6-(methylsulfonyl)-3,6-diazabicyclo[3.1.1]heptan-3-yl)phenyl)-1H-indazol-6-ol]"
12,6.00 to 7.00,"CS(=O)(=O)C1CCN(c2ccc(-n3ncc4cc(F)c(O)c(F)c43)cc2)CC1 [Compound 22.3, 5,7-Difluoro-1-(4-(4-(methylsulfonyl)piperidin-1-yl)phenyl)-1H-indazol-6-ol]"
13,> 7.00,"CC1CN(c2ccc(-n3ncc4cc(F)c(O)c(F)c43)cc2)CCO1 (centres unmarked) [Compound 20.4, 5,7-Difluoro-1-(4-(2-methylmorpholino)phenyl)-1H-indazol-6-ol]"
14,4.52 to 6.00,"Oc1c(F)cc2nnn(-c3cnc(N4CC5(CCOCC5)C4)nc3)c2c1F [Compound 42.1, 1-(2-(7-Oxa-2-azaspiro[3.5]nonan-2-yl)pyrimidin-5-yl)-5,7-difluoro-1H-benzo[d][1,2,3]triazol-6-ol]"
15,6.00 to 7.00,"CC1(CO)CCN(c2ccc(-n3ncc4cc(F)c(O)c(F)c43)cc2)CC1 [Compound 20.17, 5,7-Difluoro-1-(4-(4-(hydroxymethyl)-4-methylpiperidin-1-yl)phenyl)-1H-indazol-6-ol]"
16,> 7.00,"Oc1c(F)cc2cnn(-c3ccc(C4=CCOCC4)cc3)c2c1F [Compound 27.3, 1-(4-(3,6-Dihydro-2H-pyran-4-yl)phenyl)-5,7-difluoro-1H-indazol-6-ol]"
17,6.00 to 7.00,"CS(=O)(=O)N1CCN(c2cnc(-n3ncc4cc(F)c(O)c(F)c43)cn2)CC1 [Compound 26.7, 5,7-Difluoro-1-(5-(4-(methylsulfonyl)piperazin-1-yl)pyrazin-2-yl)-1H-indazol-6-ol]"

# Continued, molecule first:
row,Structure (SMILES),pIC50
1,"Oc1ccc(-c2ccc(-n3ncc4cc(F)c(O)cc43)cn2)cc1 [Compound 15.2, 5-Fluoro-1-(6-(4-hydroxyphenyl)pyridin-3-yl)-1H-indazol-6-ol]",6.00 to 7.00
2,"OCc1ccc(-c2ccc(-n3ncc4cc(F)c(O)cc43)cc2)cc1 [Compound 13.23, 5-Fluoro-1-(4′-(hydroxymethyl)-[1,1′-biphenyl]-4-yl)-1H-indazol-6-ol]",6.00 to 7.00
3,"Oc1ccc(-c2ccc(-n3cnc4cc(F)c(O)cc43)cc2)cc1 [Compound 9, 5-Fluoro-1-(4′-hydroxy-[1,1′-biphenyl]-4-yl)-1H-benzo[d]imidazol-6-ol]",> 7.00
4,"Oc1cccc(-c2ccc(-n3ncc4c(F)cc(O)c(F)c43)cc2)c1 [Compound 16, 4,7-Difluoro-1-(3′-hydroxy-[1,1′-biphenyl]-4-yl)-1H-indazol-6-ol]",6.00 to 7.00
5,"Oc1c(F)cc2cnn(-c3ccc(-c4cc[nH]n4)cc3)c2c1F [Compound 14.2, 1-(4-(1H-Pyrazol-3-yl)phenyl)-5,7-difluoro-1H-indazol-6-ol]",6.00 to 7.00
6,"Oc1ccc(-c2ccc(-n3ncc4cc(F)c(O)c(F)c43)cc2)cc1 [Compound 13.1, 5,7-Difluoro-1-(4′-hydroxy-[1,1′-biphenyl]-4-yl)-1H-indazol-6-ol]",> 7.00
7,"Cc1cccc(-c2ccc(-n3ncc4cc(F)c(O)cc43)cc2)c1 [Compound 13.10, 5-Fluoro-1-(3′-methyl-[1,1′-biphenyl]-4-yl)-1H-indazol-6-ol]",6.00 to 7.00
8,"Cn1c(=O)c2cc(F)c(O)c(F)c2n1-c1ccc(N2CCC(C)(C)CC2)cc1 [Compound 37, 1-(4-(4,4-Dimethylpiperidin-1-yl)phenyl)-5,7-difluoro-6-hydroxy-2-methyl-1H-indazol-3(2H)-one]",6.00 to 7.00
9,"Oc1cc2c(cnn2-c2ccc(-c3ccccn3)cc2)cc1F [Compound 13.13, 5-Fluoro-1-(4-(pyridin-2-yl)phenyl)-1H-indazol-6-ol]",4.52 to 6.00
10,"Oc1cc2c(cnn2-c2ccc(Oc3ccccc3)cc2)cc1F [Compound 2.3, 5-Fluoro-1-(4-phenoxyphenyl)-1H-indazol-6-o1]",6.00 to 7.00
11,"N#Cc1cccc(-c2ccc(-n3ncc4cc(F)c(O)cc43)cc2)c1 [Compound 13.17, 4′-(5-Fluoro-6-hydroxy-1H-indazol-1-yl)-[1,1′-biphenyl]-3-carbonitrile]",6.00 to 7.00
12,"CC1(C)CCN(c2ccc(-n3[nH]c(=O)c4cc(F)c(O)c(F)c43)cc2)CC1 [Compound 36, 1-(4-(4,4-Dimethylpiperidin-1-yl)phenyl)-5,7-difluoro-6-hydroxy-1H-indazol-3(2H)-one]",6.00 to 7.00
13,"Oc1cc2c(cnn2-c2ccc(-c3ccccc3Cl)cc2)cc1F [Compound 13.6, 1-(2′-Chloro-[1,1′-biphenyl]-4-yl)-5-fluoro-1H-indazol-6-ol]",6.00 to 7.00
14,"CC1(C)CCN(c2ccc(-n3ncc4cc(F)c(O)c(F)c43)cn2)CC1 [Compound 26, 1-(6-(4,4-Dimethylpiperidin-1-yl)pyridin-3-yl)-5,7-difluoro-1H-indazol-6-ol]",> 7.00
15,"Oc1ccc(-c2ccc(-n3ncc4ccc(O)cc43)cc2)cc1 [Compound 1, 1-(4′-Hydroxy-[1,1′-biphenyl]-4-yl)-1H-indazol-6-ol]",6.00 to 7.00
16,"CC1(C)CCN(c2ncc(-n3nnc4cc(F)c(O)c(F)c43)cn2)CC1 [Compound 42, 1-(2-(4,4-Dimethylpiperidin-1-yl)pyrimidin-5-yl)-5,7-difluoro-1H-benzo[d][1,2,3]triazol-6-ol]",> 7.00
17,"CS(=O)(=O)N1CCC(Oc2ccc(-n3ncc4cc(F)c(O)c(F)c43)cc2)CC1 [Compound 31, 5,7-Difluoro-1-(4-((1-(methylsulfonyl)piperidin-4-yl)oxy)phenyl)-1H-indazol-6-ol]",6.00 to 7.00
18,"Oc1ccc(-c2ccc(-n3ncc4cc(F)c(O)cc43)nc2)cc1 [Compound 15.3, 5-Fluoro-1-(5-(4-hydroxyphenyl)pyridin-2-yl)-1H-indazol-6-ol]",6.00 to 7.00
19,"CS(=O)(=O)N1CCN(c2ccc(-n3ncc4cc(F)c(O)c(Cl)c43)cc2)CC1 [Compound 25, 7-Chloro-5-fluoro-1-(4-(4-(methylsulfonyl)piperazin-1-yl)phenyl)-1H-indazol-6-ol]",6.00 to 7.00

# Same assay, conditions: 3 h; at 10 uM compound; read-out: HSD17β13 % at 10 uM
row,inhibition at 10 µM [%],Structure (SMILES)
1,35,"CS(=O)(=O)N1CCN(c2ccc(-n3ncc4cc(F)c(O)nc43)cc2)CC1 [Compound 25.3, 5-Fluoro-1-(4-(4-(methylsulfonyl)piperazin-1-yl)phenyl)-1H-pyrazolo[3,4-b]pyridin-6-ol]"

# Same assay, conditions: 3 h; at 30 uM compound; read-out: HSD17β13 % at 30 uM
row,inhibition at 30 µM [%],Structure (SMILES)
1,40,"Oc1cc2c(cnn2-c2ccc(-c3cccnc3)cc2)cc1F [Compound 13.14, 5-Fluoro-1-(4-(pyridin-3-yl)phenyl)-1H-indazol-6-ol]"
